molecular target: T1, Ba/F3 cell EGFR Exon20 ins NPH (Homo sapiens, UniProt P00533, INS773NPH); assay: Ba/F3 cell proliferation suppression, EGFR Exon20 ins NPH; assay type: cell-based; details: GI50 class; Ba/F3 cell line with NPH inserted at Exon20 of EGFR; 72 hours
T1 construct: expressed in transfected cells; host or cells: Ba/F3
How it was run: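 72 h compound exposure, 0.3 nM–50 um (12 points, 3:1 dilution in DMSO); viability by CellTiter-Glo luminescence. Ba/F3 medium: RPMI-1640, 10% FBS, 5 ng/ml IL-3, 1 ug/ml puromycin for transduced cells. GI50 vs control, n=3.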

| Structure (SMILES) | Ba/F3 (NPH) Activity |
| --- | --- |
| C=CC(=O)Nc1cc(Nc2cc(N3OCC[C@@H]3c3ccc(Cl)c(F)c3)ncn2)c(OC)cc1N1CC[C@H](N2CCOCC2)C1 [compound 365, N-(5-((6-((R)-3-(4-chloro-3-fluorophenyl)isoxazolidine-2-yl)pyrimidine-4-yl)amino)-4-methoxy-2-((S)-3-morpholinopyrolidine-1-yl)phenyl) acrylamide] | B (50 nM ≤ GI50 < 500 nM) |
| C=CC(=O)Nc1cc(Nc2cc(N3OCC[C@@H]3c3cc(F)cc(F)c3)ncn2)c(OC)cc1N1CCC(N2C[C@@H](C)N(C3CC3)C[C@H]2C)CC1 [Example 114, N-(2-(4-((2R,5R)-4-cyclopropyl-2,5-dimethylpiperazine-1-yl)piperidine-1-yl)-5-((6-((R)-3-(3,5-difluorophenyl)isoxazolidine-2-yl)pyrimidine-4-yl)amino)-4-methoxyphenyl) acrylamide] | A (GI50 < 50 nM) |
| C=CC(=O)Nc1cc(Nc2cc(N3OCC[C@@H]3c3ccc(F)cc3F)ncn2)c(OC)cc1N1CC[C@@H](N(C)C)C1 [compound 376, N-(5-((6-((R)-3-(2,4-difluorophenyl)isoxazolidine-2-yl)pyrimidine-4-yl)amino)-2-((R)-3-(dimethylamino)pyrolidine-1-yl)-4-methoxyphenyl) acrylamide] | A (GI50 < 50 nM) |
| C=CCN1CCN(C2CCN(c3cc(OC)c(Nc4cc(N5OCC[C@@H]5c5cccc(C#N)c5)ncn4)cc3NC(=O)C=C)CC2)CC1 [Example 210, N-(2-(4-(4-allylpiperazine-1-yl)piperidine-1-yl)-5-((6-((R)-3-(3-cyanophenyl)isoxazolidine-2-yl)pyrimidine-4-yl)amino)-4-methoxyphenyl) acrylamide] | A (GI50 < 50 nM) |
| C=CC(=O)Nc1cc(Nc2cc(N3OCC[C@@H]3c3cc(F)ccc3F)ncn2)c(OC)cc1N1CCC(N2CCN(CC3CC3)CC2)CC1 [Example 93, N-(2-(4-(4-(cyclopropylmethyl)piperazine-1-yl)piperidine-1-yl)-5-((6-((R)-3-(2,5-difluorophenyl)isoxazolidine-2-yl)pyrimidine-4-yl)amino)-4-methoxyphenyl) acrylamide] | A (GI50 < 50 nM) |
| C=CC(=O)Nc1cc(Nc2cc(N3OCC[C@@H]3c3ccc(C)nc3)ncn2)c(OC)cc1N(C)CCOC [Example 223, N-(4-methoxy-2-((2-methoxyethyl) (methyl)amino)-5-((6-((R)-3-(6-methylpyridine-3-yl)isoxazolidine-2-yl)pyrimidine-4-yl)amino)phenyl)acrylamide] | B (50 nM ≤ GI50 < 500 nM) |
| C=CC(=O)Nc1cc(Nc2cc(N3OCC[C@@H]3c3ccc(F)cc3F)ncn2)c(OC)cc1N1CCC(N2CCN(C3CCN(C)CC3)CC2)CC1 [compound 430, N-(5-((6-((R)-3-(2,4-difluorophenyl)isoxazolidine-2-yl)pyrimidine-4-yl)amino)-4-methoxy-2-(4-(4-(1-methylpiperidine-4-yl)piperazine-1-yl)piperidine-1-yl)phenyl)acrylamide] | A (GI50 < 50 nM) |
| C=CC(=O)Nc1cc(Nc2cc(N3OCC[C@@H]3c3cccc(C#N)c3)ncn2)c(OC)cc1N1CCC(N2CCN(C3CC3)C[C@H]2C)CC1 [Example 131, N-(5-((6-((R)-3-(3-cyanophenyl)isoxazolidine-2-yl)pyrimidine-4-yl)amino)-2-(4-((R)-4-cyclopropyl-2-methylpiperazine-1-yl)piperidine-1-yl)-4-methoxyphenyl) acrylamide] | A (GI50 < 50 nM) |
| C=CC(=O)Nc1cc(Nc2cc(N3OCC[C@@H]3c3ccc(Cl)cc3F)ncn2)c(OC)cc1N(C)CCN(C)C [compound 371, N-(5-((6-((R)-3-(4-chloro-2-fluorophenyl)isoxazolidine-2-yl)pyrimidine-4-yl)amino)-2-((2-(dimethylamino)ethyl)(methyl)amino)-4-methoxyphenyl) acrylamide] | A (GI50 < 50 nM) |
| C=CC(=O)Nc1cc(Nc2cc(N3OCC[C@@H]3c3cc(F)cc(F)c3)ncn2)c(OC)cc1N1CCO[C@@H](C)C1 [compound 337, N-(5-((6-((R)-3-(3,5-difluorophenyl)isoxazolidine-2-yl)pyrimidine-4-yl)amino)-4-methoxy-2-((S)-2-methylmorpholino)phenyl)acrylamide] | B (50 nM ≤ GI50 < 500 nM) |

Now from value to molecule:

| Ba/F3 (NPH) Activity | Structure (SMILES) |
| --- | --- |
| A (GI50 < 50 nM) | C=CC(=O)Nc1cc(Nc2cc(N3OCC[C@@H]3c3cc(F)cc(Cl)c3)ncn2)c(OC)cc1N1CCC(N2C[C@@H]3C[C@H]2CO3)CC1 [compound 592, N-(2-(4-((1S,4S)-2-oxa-5-azabicyclo[2.2.1]heptane-5-yl)piperidine-1-yl)-5-((6-((R)-3-(3-chloro-5-fluorophenyl)isoxazolidine-2-yl)pyrimidine-4-yl)amino)-4-methoxyphenyl) acrylamide] |
| A (GI50 < 50 nM) | C=CC(=O)Nc1cc(Nc2cc(N3OCC[C@@H]3c3ccc(Cl)c(F)c3)ncn2)c(OC)cc1N1CCC(N2CCN(C(C)C)CC2)CC1 [compound 708, N-(5-((6-((R)-3-(4-chloro-3-fluorophenyl)isoxazolidine-2-yl)pyrimidine-4-yl)amino)-2-(4-(4-isopropylpiperazine-1-yl)piperidine-1-yl)-4-methoxyphenyl) acrylamide] |
| A (GI50 < 50 nM) | C=CC(=O)Nc1cc(Nc2cc(N3OCC[C@@H]3c3cccc(Cl)c3)ncn2)c(OC)cc1N1CC[C@H](N(C)C)C1 [compound 468, N-(5-((6-((R)-3-(3-chlorophenyl)isoxazolidine-2-yl)pyrimidine-4-yl)amino)-2-((S)-3-(dimethylamino)pyrolidine-1-yl)-4-methoxyphenyl) acrylamide] |
| A (GI50 < 50 nM) | C=CC(=O)Nc1cc(Nc2cc(N3OCC[C@@H]3c3ccc(F)c(F)c3)ncn2)c(OC)cc1N1CCC(N2CCN(C(C)C)CC2)CC1 [compound 501, N-(5-((6-((R)-3-(3,4-difluorophenyl)isoxazolidine-2-yl)pyrimidine-4-yl)amino)-2-(4-(4-isopropylpiperazine-1-yl)piperidine-1-yl)-4-methoxyphenyl) acrylamide] |
| A (GI50 < 50 nM) | C=CC(=O)Nc1cc(Nc2cc(N3OCC[C@@H]3c3cc(F)cc(Cl)c3)ncn2)c(OC)cc1N1CCC(N2CCO[C@@H](C)C2)CC1 [compound 595, N-(5-((6-((R)-3-(3-chloro-5-fluorophenyl)isoxazolidine-2-yl)pyrimidine-4-yl)amino)-4-methoxy-2-(4-((S)-2-methylmorpholino)piperidine-1-yl)phenyl) acrylamide] |
| A (GI50 < 50 nM) | C=CC(=O)Nc1cc(Nc2cc(N3OCC[C@@H]3c3cccc(Cl)c3Cl)ncn2)c(OC)cc1N1CCN(C)CC1 [compound 481, N-(5-((6-((R)-3-(2,3-dichlorophenyl)isoxazolidine-2-yl)pyrimidine-4-yl)amino)-4-methoxy-2-(4-methylpiperazine-1-yl)phenyl)acrylamide] |
| A (GI50 < 50 nM) | C=CC(=O)Nc1cc(Nc2cc(N3OCC[C@@H]3c3cccc(F)c3)ncn2)c(OC)cc1N1C[C@@H]2C[C@H]1CO2 [compound 832, N-(2-((1S,4S)-2-oxa-5-azabicyclo[2.2.1]heptane-5-yl)-5-((6-((R)-3-(3-fluorophenyl)isoxazolidine-2-yl)pyrimidine-4-yl)amino)-4-methoxyphenyl) acrylamide] |
| A (GI50 < 50 nM) | C=CC(=O)Nc1cc(Nc2cc(N3OCC[C@@H]3c3cccc(Cl)c3Cl)ncn2)c(OC)cc1N1CCN(CC2CC2)CC1 [compound 567, N-(2-(4-(cyclopropylmethyl)piperazine-1-yl)-5-((6-((R)-3-(2,3-dichlorophenyl)isoxazolidine-2-yl)pyrimidine-4-yl)amino)-4-methoxyphenyl) acrylamide] |
| A (GI50 < 50 nM) | C=CC(=O)Nc1cc(Nc2cc(N3OCC[C@@H]3Cc3ccccn3)ncn2)c(OC)cc1N1CCC(N2CCN(C3CC3)CC2)CC1 [compound 1059, N-(2-(4-(4-cyclopropylpiperazine-1-yl)piperidine-1-yl)-4-methoxy-5-((6-((S)-3-(pyridine-2-ylmethyl)isoxazolidine-2-yl)pyrimidine-4-yl)amino)phenyl)acrylamide] |
| A (GI50 < 50 nM) | C=CC(=O)Nc1cc(Nc2cc(N3OCC[C@@H]3c3ccc(F)c(Cl)c3)ncn2)c(OC)cc1N1CCN(C(C)=O)CC1 [compound 907, N-(2-(4-acetylpiperazine-1-yl)-5-((6-((R)-3-(3-chloro-4-fluorophenyl)isoxazolidine-2-yl)pyrimidine-4-yl)amino)-4-methoxyphenyl) acrylamide] |
| A (GI50 < 50 nM) | C=CC(=O)Nc1cc(Nc2cc(N3OCC[C@@H]3c3cc(F)cc(F)c3)ncn2)c(OC)cc1N1CCC(N2CCN3CCCC3C2)CC1 (stereo partly drawn) [compound 852, N-(5-((6-((R)-3-(3,5-difluorophenyl)isoxazolidine-2-yl)pyrimidine-4-yl)amino)-2-(4-(hexahydropyrrolo [1,2-a]pyrazine-2(1H)-yl)piperidine-1-yl)-4-methoxyphenyl) acrylamide] |
| A (GI50 < 50 nM) | C=CC(=O)Nc1cc(Nc2cc(N3OCC[C@@H]3c3cccc(Cl)c3F)ncn2)c(OC)cc1N1CCN(C2COC2)CC1 [compound 745, N-(5-((6-((R)-3-(3-chloro-2-fluorophenyl)isoxazolidine-2-yl)pyrimidine-4-yl)amino)-4-methoxy-2-(4-(oxetane-3-yl)piperazine-1-yl)phenyl) acrylamide] |
| A (GI50 < 50 nM) | C=CC(=O)Nc1cc(Nc2cc(N3OCC[C@@H]3c3cc(F)cc(F)c3)ncn2)c(OC)cc1N1CCC(N2CC[C@@H](CN(C)C)C2)CC1 [compound 626, N-(5-((6-((R)-3-(3,5-difluorophenyl)isoxazolidine-2-yl)pyrimidine-4-yl)amino)-2-(4-((S)-3-((dimethylamino)methyl)pyrolidine-1-yl)piperidine-1-yl)-4-methoxyphenyl) acrylamide] |

— patent US12157730B2, “Heteroaryl derivative, method for producing same, and pharmaceutical composition comprising same as effective component” (VORONOI INC., priority 2019, dated 2024)
